We go through 22 compounds from the SangsterLogP compilation.

The first data set in a line: method code SF, from DOI: 10.1016/0223-5234(96)88244-4. Conditions: pH 7.4.
In general, logD refers to the decadic logarithm of the distribution of all forms, ionised or not, between an organic phase and buffer at a given pH. Compound `N#CN=C(NS(=O)(=O)c1cnccc1NC1CCCCC1)N1CCCC1` displayed a logD of 1.07.

Assay in another data set: not given
Settings: not given
One may read the logP as the decadic logarithm of the partition coefficient of the neutral form, usually between octanol and water. Low readings indicate lower lipophilicity, high ones higher lipophilicity. Compound `N#CN=C(NS(=O)(=O)c1cnccc1NC1CCCCCC1)N1CCCC1` displayed a logP of 1.65.

For the compound `CC(C)NC(=NC#N)NS(=O)(=O)c1cnccc1Nc1cccc(Br)c1`, the logP is 1.27.

As to `CC(C)N=C(NC#N)NS(=O)(=O)c1cnccc1Nc1cccc(F)c1`, the logP came out at 0.59.

On to `CC(C)NC(=NC#N)NS(=O)(=O)c1cnccc1NC1CCCCCCC1`, for which the logP was found to be 1.8.

Compound `CCNC(=NC#N)NS(=O)(=O)c1cnccc1NC1CCCCCC1` showed a logP of 0.75.

The compound `CC(C)NC(=NC#N)NS(=O)(=O)c1cnccc1NC1CCCCCCCCCCC1` showed a logP of 3.73.

`N#CN=C(NS(=O)(=O)c1cnccc1NC1CCCCCCC1)N1CCCC1` gave a logP of 2.15.

As to `CNc1ccncc1S(=O)(=O)NC(=NC#N)NC(C)C`, the logP is -1.43.

With `CCNc1ccncc1S(=O)(=O)NC(=NC#N)NC(C)C`, the logP is -1.02.

As for `Cc1ccccc1Nc1ccncc1S(=O)(=O)NC(=NC#N)NC(C)C`, the logP stood at 0.67.

For `CCCNc1ccncc1S(=O)(=O)NC(=NC#N)NC(C)C`, the logP was -0.43.

`CC(C)NC(=NC#N)NS(=O)(=O)c1cnccc1NC1CCCCC1` yielded a logP of 0.75.

Compound `Cc1cccc(Nc2ccncc2S(=O)(=O)NC(=NC#N)NC(C)C)c1` had a logP of 0.86.

Compound `CC(C)NC(=NC#N)NS(=O)(=O)c1cnccc1NC1CC1` displayed a logP of -0.77.

In turn, `CC(C)CNc1ccncc1S(=O)(=O)NC(=NC#N)NC(C)C` registered a logP of 0.1.

`CC(C)NC(=NC#N)NS(=O)(=O)c1cnccc1Nc1cccc(Cl)c1` came in with a logP of 1.14.

`CC(C)NC(=NC#N)NS(=O)(=O)c1cnccc1NC1CCCC1`: the log partition coefficient (logP) stood at 0.2.

The compound `CCNC(=NC#N)NS(=O)(=O)c1cnccc1NC1CCCCC1` came in with a logP of 0.16.

Regarding `CC(C)NC(=NC#N)NS(=O)(=O)c1cnccc1Nc1ccc(Cl)cc1`, the logP turned out to be 1.37.

In turn, `CC(C)NC(=NC#N)NS(=O)(=O)c1cnccc1Nc1cccc(I)c1` gave a logP of 1.51. The logP values of the last two compounds are within 0.2 log units of each other.

Compound `Cc1ccc(Nc2ccncc2S(=O)(=O)NC(=NC#N)NC(C)C)cc1` gave a logP of 0.91.
